Laboratory results reported in the supplement of paper PMC13207355.
Where a name gives a salt, the structure may show the parent alone.

What was measured:
Settings in all cases: exposure time: 72 h
E21 [1] = patient-derived glioblastoma stem cells of mesenchymal subtype; assay: phenotypic distance (Euclidean, principal components) from DMSO controls (arbitrary units); higher = stronger morphological change
E28 [2] = patient-derived glioblastoma stem cells of classical subtype; assay: as above
E31 [3] = patient-derived glioblastoma stem cells of proneural subtype; assay: as above
E57 [4] = patient-derived glioblastoma stem cells of mesenchymal subtype; assay: as above
FT3469 [5] = normal neural stem cell line; assay: as above
E13 [6] = patient-derived glioblastoma stem cells of classical subtype; assay: as above
E34 [7] = patient-derived glioblastoma stem cells of proneural subtype; assay: as above
E21 [8] = assay: surviving fraction (nuclei count normalised to DMSO); higher = more cells surviving (less toxic)
E28 [9] = assay: as above
E31 [10] = assay: as above
E57 [11] = assay: as above
FT3469 [12] = assay: as above
E13 [13] = assay: as above
E34 [14] = assay: as above
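Wherever phenotypic distance (Euclidean, principal components) from DMSO controls is given: cell Painting imaging in 384-well plates, CellProfiler features reduced to at least 20 principal components, Euclidean distance versus same-plate DMSO vehicle wells (0.1% v/v), median over six images per well.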
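Wherever surviving fraction (nuclei count normalised to DMSO) is given: nuclei counted by high-content imaging of Hoechst-stained cells in laminin-coated 384-well plates, relative to 0.1% DMSO vehicle wells, with staurosporine as cell-death control.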

Cc1c(-c2ccc(-c3ccccc3F)cc2)nc2ccc(F)cc2c1C(=O)O [Brequinar sodium salt hydrate]
Settings	phenotypic distance	surviving fraction
E13 [6], 4.1 nM	0.5	–
E13 [6], 12.3 nM	0.844	–
E13 [6], 37 nM	0.761	–
E13 [6], 111.1 nM	1.8	–
E13 [6], 333.3 nM	4.41	–
E13 [6], 1000 nM	4.43	–
E13 [6], 3000 nM	5.02	–
E13 [13], 4.1 nM	–	1.01
E13 [13], 12.3 nM	–	1.08
E13 [13], 37 nM	–	1.03
E13 [13], 111.1 nM	–	0.858
E13 [13], 333.3 nM	–	0.726
E13 [13], 1000 nM	–	0.615
E13 [13], 3000 nM	–	0.471
E21 [1], 4.1 nM	0.972	–
E21 [1], 12.3 nM	0.391	–
E21 [1], 37 nM	1.22	–
E21 [1], 111.1 nM	0.607	–
E21 [1], 333.3 nM	1.48	–
E21 [1], 1000 nM	2.5	–
E21 [1], 3000 nM	3.68	–
E21 [8], 4.1 nM	–	0.951
E21 [8], 12.3 nM	–	1.04
E21 [8], 37 nM	–	0.918
E21 [8], 111.1 nM	–	0.817
E21 [8], 333.3 nM	–	0.699
E21 [8], 1000 nM	–	0.649
E21 [8], 3000 nM	–	0.444
E28 [2], 4.1 nM	1.07	–
E28 [2], 12.3 nM	0.503	–
E28 [2], 37 nM	0.823	–
E28 [2], 111.1 nM	1.12	–
E28 [2], 333.3 nM	1.2	–
E28 [2], 1000 nM	2.26	–
E28 [2], 3000 nM	2.28	–
E28 [9], 4.1 nM	–	1.13
E28 [9], 12.3 nM	–	1.03
E28 [9], 37 nM	–	0.963
E28 [9], 111.1 nM	–	0.807
E28 [9], 333.3 nM	–	0.606
E28 [9], 1000 nM	–	0.42
E28 [9], 3000 nM	–	0.344
E31 [3], 4.1 nM	0.556	–
E31 [3], 12.3 nM	0.921	–
E31 [3], 37 nM	0.734	–
E31 [3], 111.1 nM	0.725	–
E31 [3], 333.3 nM	2.59	–
E31 [3], 1000 nM	3.28	–
E31 [3], 3000 nM	3.43	–
E31 [10], 4.1 nM	–	1.1
E31 [10], 12.3 nM	–	1
E31 [10], 37 nM	–	0.96
E31 [10], 111.1 nM	–	1.13
E31 [10], 333.3 nM	–	0.724
E31 [10], 1000 nM	–	0.392
E31 [10], 3000 nM	–	0.407
E34 [7], 4.1 nM	0.701	–
E34 [7], 12.3 nM	0.581	–
E34 [7], 37 nM	0.513	–
E34 [7], 111.1 nM	0.804	–
E34 [7], 333.3 nM	1	–
E34 [7], 1000 nM	1.62	–
E34 [7], 3000 nM	2.87	–
E34 [14], 4.1 nM	–	0.811
E34 [14], 12.3 nM	–	0.864
E34 [14], 37 nM	–	0.96
E34 [14], 111.1 nM	–	1.01
E34 [14], 333.3 nM	–	0.909
E34 [14], 1000 nM	–	0.888
E34 [14], 3000 nM	–	0.794
E57 [4], 4.1 nM	1.62	–
E57 [4], 12.3 nM	0.514	–
E57 [4], 37 nM	1.88	–
E57 [4], 111.1 nM	3.44	–
E57 [4], 333.3 nM	5.23	–
E57 [4], 1000 nM	6.97	–
E57 [4], 3000 nM	6.84	–
E57 [11], 4.1 nM	–	0.969
E57 [11], 12.3 nM	–	0.999
E57 [11], 37 nM	–	0.871
E57 [11], 111.1 nM	–	0.67
E57 [11], 333.3 nM	–	0.458
E57 [11], 1000 nM	–	0.372
E57 [11], 3000 nM	–	0.325
FT3469 [5], 4.1 nM	0.696	–
FT3469 [5], 12.3 nM	0.439	–
FT3469 [5], 37 nM	0.863	–
FT3469 [5], 111.1 nM	0.612	–
FT3469 [5], 333.3 nM	1.17	–
FT3469 [5], 1000 nM	1.76	–
FT3469 [5], 3000 nM	1.88	–
FT3469 [12], 4.1 nM	–	0.883
FT3469 [12], 12.3 nM	–	0.941
FT3469 [12], 37 nM	–	0.996
FT3469 [12], 111.1 nM	–	1
FT3469 [12], 333.3 nM	–	0.858
FT3469 [12], 1000 nM	–	0.742
FT3469 [12], 3000 nM	–	0.65

CC(C)C[C@H]1C(=O)N2CCC[C@H]2[C@]2(O)O[C@](NC(=O)[C@@H]3C=C4c5cccc6[nH]c(Br)c(c56)C[C@H]4N(C)C3)(C(C)C)C(=O)N12 [Bromocryptine mesylate]
Settings	phenotypic distance	surviving fraction
E13 [6], 4.1 nM	0.797	–
E13 [6], 12.3 nM	0.698	–
E13 [6], 37 nM	0.44	–
E13 [6], 111.1 nM	1.07	–
E13 [6], 333.3 nM	0.683	–
E13 [6], 1000 nM	1.03	–
E13 [6], 3000 nM	1.57	–
E13 [13], 4.1 nM	–	0.907
E13 [13], 12.3 nM	–	0.944
E13 [13], 37 nM	–	0.958
E13 [13], 111.1 nM	–	0.816
E13 [13], 333.3 nM	–	0.981
E13 [13], 1000 nM	–	0.976
E13 [13], 3000 nM	–	0.8
E21 [1], 4.1 nM	0.67	–
E21 [1], 12.3 nM	0.901	–
E21 [1], 37 nM	0.972	–
E21 [1], 111.1 nM	0.667	–
E21 [1], 333.3 nM	0.353	–
E21 [1], 1000 nM	0.811	–
E21 [1], 3000 nM	0.593	–
E21 [8], 4.1 nM	–	1.06
E21 [8], 12.3 nM	–	1.02
E21 [8], 37 nM	–	1.05
E21 [8], 111.1 nM	–	0.989
E21 [8], 333.3 nM	–	1
E21 [8], 1000 nM	–	0.969
E21 [8], 3000 nM	–	0.967
E28 [2], 4.1 nM	1.04	–
E28 [2], 12.3 nM	0.531	–
E28 [2], 37 nM	0.575	–
E28 [2], 111.1 nM	0.661	–
E28 [2], 333.3 nM	0.642	–
E28 [2], 1000 nM	0.784	–
E28 [2], 3000 nM	1.28	–
E28 [9], 4.1 nM	–	1.1
E28 [9], 12.3 nM	–	1.07
E28 [9], 37 nM	–	1.07
E28 [9], 111.1 nM	–	1.12
E28 [9], 333.3 nM	–	0.978
E28 [9], 1000 nM	–	1.05
E28 [9], 3000 nM	–	0.779
E31 [3], 4.1 nM	0.381	–
E31 [3], 12.3 nM	0.548	–
E31 [3], 37 nM	0.581	–
E31 [3], 111.1 nM	0.404	–
E31 [3], 333.3 nM	0.658	–
E31 [3], 1000 nM	0.705	–
E31 [3], 3000 nM	0.828	–
E31 [10], 4.1 nM	–	1.07
E31 [10], 12.3 nM	–	1.06
E31 [10], 37 nM	–	0.944
E31 [10], 111.1 nM	–	1.15
E31 [10], 333.3 nM	–	1.03
E31 [10], 1000 nM	–	1.13
E31 [10], 3000 nM	–	0.897
E34 [7], 4.1 nM	0.67	–
E34 [7], 12.3 nM	0.914	–
E34 [7], 37 nM	0.493	–
E34 [7], 111.1 nM	0.843	–
E34 [7], 333.3 nM	1.2	–
E34 [7], 1000 nM	0.94	–
E34 [7], 3000 nM	1.28	–
E34 [14], 4.1 nM	–	0.907
E34 [14], 12.3 nM	–	0.846
E34 [14], 37 nM	–	0.967
E34 [14], 111.1 nM	–	1.16
E34 [14], 333.3 nM	–	0.879
E34 [14], 1000 nM	–	1.05
E34 [14], 3000 nM	–	0.727
E57 [4], 4.1 nM	0.496	–
E57 [4], 12.3 nM	0.874	–
E57 [4], 37 nM	0.757	–
E57 [4], 111.1 nM	5.36	–
E57 [4], 333.3 nM	0.51	–
E57 [4], 1000 nM	0.474	–
E57 [4], 3000 nM	1.74	–
E57 [11], 4.1 nM	–	0.932
E57 [11], 12.3 nM	–	1.13
E57 [11], 37 nM	–	0.893
E57 [11], 111.1 nM	–	1.05
E57 [11], 333.3 nM	–	1.01
E57 [11], 1000 nM	–	0.91
E57 [11], 3000 nM	–	0.777
FT3469 [5], 4.1 nM	1.05	–
FT3469 [5], 12.3 nM	1.08	–
FT3469 [5], 37 nM	0.956	–
FT3469 [5], 111.1 nM	0.691	–
FT3469 [5], 333.3 nM	0.43	–
FT3469 [5], 1000 nM	0.442	–
FT3469 [5], 3000 nM	0.73	–
FT3469 [12], 4.1 nM	–	0.76
FT3469 [12], 12.3 nM	–	0.909
FT3469 [12], 37 nM	–	1.01
FT3469 [12], 111.1 nM	–	0.932
FT3469 [12], 333.3 nM	–	0.984
FT3469 [12], 1000 nM	–	1.01
FT3469 [12], 3000 nM	–	0.912
